Measured values taken from patent US20250268884A1, “Deuterated Domperidone for Treating Gastroparesis” (CinDome Pharma, Inc., priority 2022, published 2025).

Assay: clinical
Settings: human, plasma, oral
Method: The following PK parameters were calculated for deuterated domperidone from plasma concentrations (Day 1) using a noncompartmental method, if the data permitted: • Cmax determined directly from the concentration-time profile.
[formula] • λz calculated from a semi-logarithmic plot of the plasma concentration versus time curve. The parameter was calculated by linear least-squares regression analysis using points in the terminal logarithmic-linear phase; • T½ calculated as natural logarithm (2)/λz; • CL/F calculated as Dose/AUC0-∞; • Vz/F calculated as Dose/(λz×AUC0-∞); • Rcmax calculated as Cmax on Day 14/Cmax on Day 1; and • RAUC calculated as AUCtau on Day 14/AUCtau on Day 1.

Work on `[2H]c1c([2H])c([2H])c2c([nH]c(=O)n2CCCN2CCC(n3c(=O)[nH]c4cc(Cl)ccc43)CC2)c1[2H]` [Deudomperidone, 1-{3-[4-(5-chloro-2-oxo-2,3-dihydro-1H-1,3-benzodiazol-1-yl)piperidin-1yl]propyl}-2,3-dihydro(4,5,6,7-D4)-1H-1,3-benzodiazol-2-one] yielded a Tmax (5 mg, Tmax, Day 1 (single dose), 5 mg BID, median, plasma deuterated domperidone) of 2 h, a Tmax (5 mg, Tmax, Day 14 (steady state), 5 mg BID, median, plasma deuterated domperidone) of 2 h and a Tmax (10 mg, Tmax, Day 1 (single dose), 10 mg BID, median, plasma deuterated domperidone) of 2 h. For the same molecule, the Tmax (10 mg, Tmax, Day 14 (steady state), 10 mg BID, median, plasma deuterated domperidone) was 2 h, the Tmax (20 mg, Tmax, Day 1 (single dose), 20 mg QD, median, plasma deuterated domperidone) was 2.5 h and the Tmax (20 mg, Tmax, Day 14 (steady state), 20 mg QD, median, plasma deuterated domperidone) was 2 h. For the same molecule, the Tmax (median Tmax, across dose groups (5 mg BID, 10 mg BID, 20 mg QD), patients with gastroparesis) was 2 to 2.5 h.
